Measured values from US20250228853A1, “Apoptosis Inhibitors” (Queen's University at Kingston, priority 2024, published 2025).
Entries after “also recorded” stand apart in the source; their conditions may differ.

Legend:
[1] = system: BEAS-2B cells infected with HCoV-OC43; assay: apoptosis by TUNEL staining in HCoV-OC43 infected BEAS-2B cells; format: cell-based, human; details: for apoptosis (TUNEL positive cells): BEAS-2B, 48 h treatment from 24 h post infection, FIG. 1B; for effectiveness in the in vitro screening to confirm biological activity: in vitro screening as described in the patent
Procedure: (§1) Cell Culture: BEAS-2B cells (an epithelial cell line that was isolated from normal human bronchial epithelium) were purchased from the American Type Culture Collection (ATCC) through Cedarlane Corp., Burlington, Canada. The cells were cultured in bronchial epithelial cell growth medium (Lonza/Clonetics Corporation, Basel, Switzerland) supplemented with 10% fetal bovine serum (FBS). Cells were cultured at 37° C. in a humidified incubator balanced with 5% CO2.
(§2) Compound solution preparation for in vitro experiments: Candidate compounds were dissolved in anhydrous Dimethyl Sulfoxide (DMSO) (available from Sigma Aldrich), filtered by a 0.20 μm PTFE filter and added to culture medium to make a working solution at designated concentrations. Final concentration of DMSO in culture medium was ≤0.1%. Same volume of DMSO was used as control.
(§3) An apoptosis study was conducted (see FIGS. 1A-1C). HCoV-OC43 infection (referred to as “OC43” herein) see Archer, S. L., et al., Redox Biology ([…]) 58:102508) was performed in BEAS-2B cells (an epithelial cell line that was isolated from normal human bronchial epithelium, available from ATCC through Cedarlane Corp., Burlington, Canada). Cells were counted and then seeded in a cell culture plate overnight. The cell culture media was replaced with serum-free media containing 3 focus-forming units (ffu)/cell of OC43 virus. The cells were cultured in this inoculum for 2 hours. Then the inoculum was replaced with complete growth medium and incubated at 33° C. until 72 hours post-infection (the time of the experimental endpoint). Cells were then treated for 48 hours with AIF Inhibitor compounds starting at 24 hours post infection. Concentration of compounds: AIF inhibitor 1, AIF inhibitor 3, and AIF inhibitor 6 were used at a concentration of 10 uM; Drpitor1a, which is a Drp1 inhibitor and is not an AIF inhibitor) was used at a concentration of 1 uM. Cell viability was measured by cell count (see FIG. 1A). Apoptotic cells were measured by TUNEL staining (see FIG. 1B) (see Archer, S. L., et al., Redox Biol. (2022) 58:102508). Cells were dual stained with Click-iT® Plus TUNEL (available from Thermo Fisher, Waltham, MA, USA) and 4′,6-diamidino-2-phenylindole (DAPI) (available from Thermo Fisher, Waltham, MA, USA). Images were captured on a Leica SP8 confocal microscope using a 63×1.4 NA objective and a white light laser at 488 nm. Emission acquisition gating was 510-530 nm (for TUNEL). A 405 nm laser diode was used for DAPI excitation and the emission acquisition gate was set at 420-480 nm. Viral loads were quantified using qRT-PCR (see FIG. 1C). mRNA level of HCoV-OC43 N protein was measured and compared among treatment groups.

HCoV-OC43 = assay: viral load by qRT-PCR of HCoV-OC43 N protein mRNA in BEAS-2B cells; format: cell-based, Human coronavirus OC43; details: 48 h treatment from 24 h post infection, FIG. 1C
Procedure: as §1, §2, §3

[2] = system: murine hepatitis virus-1 (MHV-1); assay: murine model of MHV-1 pneumonia (lung photographs, micro-CT, hemodynamics); format: in vivo; details: 1 mg/kg QD IP 5 days
Procedure: Five-week-old A/J mice (Jackson Labs, Bar Harbour, Maine) were given an intranasal inoculation of either MHV-1 (5000 PFU/17 μl) or an identical volume of saline as control. AIF inhibitor 6 was administered for 5 days (1 mg/kg, QD, IP) post infection. At day 5 post-infection, mice were anesthetized with a single IP injection of ketamine/xylazine (150 mg/kg and 10 mg/kg, respectively). O2 saturation was measured while mice breathed room air, following which they were intubated and mechanically ventilated, which increased their O2 saturation. Transcutaneous O2 saturation was monitored during the procedure using a MouseSTAT® Jr. rodent pulse oximeter attached to the rear paw (Kent Scientific Corporation, Torrington, CT, USA). Right heart catheterization (RHC) was performed using a 1.2F Scisense pressure-volume catheter (Transonic Systems Inc., Ithaca, NY, USA) via a closed chest approach. Mice were ventilated with normoxic gas (room air, 20.6% O2) for 10 minutes, followed by hypoxic gas for 10 minutes (10% 02 balanced with N2) and then followed by normoxic gas (room air, 20.6% O2) for 10 minutes. This regimen was designed to elicit hypoxic pulmonary vasoconstriction (HPV), a normal physiologic response of the pulmonary arteries to airway hypoxia.
Referring to FIGS. 2A-2B, photographs and micro-CT images are shown from a study probing the effect of AIF Inhibitors on murine lung that had been exposed to MHV-1. Lungs were fixed with 4% formaldehyde (PFA) and perfused with 25% barium sulfate via the trachea and imaged by microCT. The micro-CT images were acquired using a VECTor4CT pre-clinical scanner (MILabs B.V., Utrecht, Netherlands) equipped with a cone beam X-ray CT system. The measurements used an acceleration voltage of 50 kVp and X-ray tube current of 430 μA in the ultra-focus mode, allowing acquisition of 3,600 projections with exposure time 40 ms, resulting in a 25 μm resolution. Tomographic CT images of FIG. 2B were compiled using MILabs reconstruction software. For quantification and segmentation, CT image data was manually processed using PMOD 3.9 software (PMOD Technologies Ltd., Zurich, Switzerland).

[3] = system: BEAS-2B cells infected with HCoV-OC43; assay: cell viability by cell count in HCoV-OC43 infected BEAS-2B cells; format: cell-based, human; details: 1 uM, 48 h treatment from 24 h post infection, endpoint 72 h, FIG. 1A
Procedure: as §1, §2
An apoptosis study was conducted (see FIGS. 1A-1C). […] Cells were counted and then seeded in a cell culture plate overnight. […] Cell viability was measured by cell count (see FIG. 1A). Apoptotic cells were measured by TUNEL staining (see FIG. 1B) (see Archer, S. L., et al., Redox Biol. (2022) 58:102508). […] Viral loads were quantified using qRT-PCR (see FIG. 1C). mRNA level of HCoV-OC43 N protein was measured and compared among treatment groups.

[4] = MHV-1 infected mice, vs vehicle, FIG. 2A

SMILES	apoptosis (TUNEL positive cells) ([1]; HCoV-OC43, 10 uM)	effectiveness in the in vitro screening to confirm biological activity [1]	viral load (Relative N expression, Nucleocapsid mRNA) (HCoV-OC43; HCoV-OC43, 10 uM)	lung edema [2, 4]	structural damage of the lungs [2, 4]	lung perfusion (micro-CT, barium contrast) ([2]; MHV-1 infected mice, vs vehicle, FIG. 2B)	hypoxic pulmonary vasoconstriction (rise in RVSP with hypoxia) ([2]; MHV-1 infected mouse, 10% O2 for 10 min, one mouse per group, FIG. 2C)	cell numbers (cell count) after HCoV-OC43 infection [3]	apoptosis (TUNEL positive cells) ([1]; HCoV-OC43, 1 uM)	viral load (Relative N expression, Nucleocapsid mRNA) (HCoV-OC43; HCoV-OC43, 1 uM)
CN1C(CC2=NC(C3CCOCC3)CC(=O)N2)=NCc2ccccc21 (stereo not shown) [Compound 1, 2-[(1-methyl-1,4-dihydroquinazolin-2-yl)methyl)-6-(tetrahydro-2H-pyran-4-yl)-5,6-dihydropyrimidin-4 (3H)-one]	reduced	particularly effective	reduced viral load							
CCN(CC)C(=O)c1nc2ccccc2cc1C(=O)c1cc(=O)[nH]c2ccccc12 [Compound 3, N,N-diethyl-3-(2-oxo-1,2-dihydroquinoline-4-carbonyl) quinoline-2-carboxamide]	reduced	particularly effective	reduced viral load							
O=C1c2ccccc2C(=O)N1CCc1c[nH]c2ccc(OCc3ccccc3)cc12 [Compound 6, 2-(2-(5-(benzyloxy)-1H-indol-3-yl)ethyl) isoindoline-1,3-dione]	reduced	particularly effective	lowers the viral titer; also recorded: reduced viral load	reduced lung edema	significantly less structural damage	increased lung perfusion	restored hypoxic pulmonary vasoconstriction			
O=C1c2ccncc2C(=O)c2c1[nH]c1ccccc21 [Drpitor1a, reference compound]								reversed	reduced	reduced viral load
